{"source": "paper PMC5829821", "about": "“Mmf1p Couples Amino Acid Metabolism to Mitochondrial DNA Maintenance in Saccharomyces cerevisiae” (mBio, 2018)", "type_in_all_cases": "biochemical", "key": {"[1]": {"molecular_target": "T1, Ilv1p(46−576) (Saccharomyces cerevisiae, UniProt P00927)", "T1 construct": "gene ILV1", "T1 sequence (P00927 46-576)": "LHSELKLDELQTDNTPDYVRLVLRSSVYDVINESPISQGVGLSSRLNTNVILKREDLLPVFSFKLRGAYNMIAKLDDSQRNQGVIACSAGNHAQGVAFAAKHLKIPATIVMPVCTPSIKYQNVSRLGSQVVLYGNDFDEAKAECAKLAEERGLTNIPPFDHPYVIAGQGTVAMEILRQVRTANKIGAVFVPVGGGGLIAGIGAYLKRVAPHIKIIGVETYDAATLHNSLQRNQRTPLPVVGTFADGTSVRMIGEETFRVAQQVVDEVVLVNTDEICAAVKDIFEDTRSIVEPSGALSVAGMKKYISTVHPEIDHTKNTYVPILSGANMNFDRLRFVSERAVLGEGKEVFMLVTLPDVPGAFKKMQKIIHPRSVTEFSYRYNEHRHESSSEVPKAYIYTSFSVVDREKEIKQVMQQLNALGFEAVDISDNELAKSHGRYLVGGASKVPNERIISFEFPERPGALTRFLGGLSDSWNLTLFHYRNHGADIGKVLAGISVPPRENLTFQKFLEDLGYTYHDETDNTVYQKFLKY", "experiment": "pyruvate formation at A230, Michaelis-Menten fit", "conditions": "50 mM potassium phosphate pH 8"}, "[2]": {"molecular_target": "T1, Ilv1p(46−576)", "conditions": "120 mM L-serine, 50 mM potassium phosphate pH 8; allosteric"}, "[3]": {"molecular_target": "T2, Mmf1p(21−147) (Saccharomyces cerevisiae, UniProt P40185)", "T2 construct": "gene MMF1", "T2 sequence (P40185 21-145)": "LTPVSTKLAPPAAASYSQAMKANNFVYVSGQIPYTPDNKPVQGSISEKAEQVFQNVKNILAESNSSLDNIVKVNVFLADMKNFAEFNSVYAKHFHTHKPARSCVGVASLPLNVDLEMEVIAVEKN", "experiment": "coupled: 2AA generated by Ilv1p([…]-576) from L-serine, pyruvate at A230", "conditions": "50 mM CHES pH 9.5, 0.6 µM Ilv1p, 1.3 µM Mmf1p"}, "[4]": {"molecular_target": "T3, RidA (Salmonella enterica, UniProt Q7CP78)", "T3 construct": "purified RidA, preparation described in earlier work", "T3 sequence (Q7CP78 1-128)": "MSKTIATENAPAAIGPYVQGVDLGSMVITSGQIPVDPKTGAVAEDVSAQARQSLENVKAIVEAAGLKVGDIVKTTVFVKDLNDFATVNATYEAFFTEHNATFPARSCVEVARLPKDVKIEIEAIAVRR", "experiment": "coupled: 2AA generated by Ilv1p([…]-576) from L-serine, pyruvate at A230", "conditions": "50 mM CHES pH 9.5, 0.6 µM Ilv1p, 1.3 µM RidA"}}, "data": [{"compound": "N[C@@H](CO)C(=O)O", "note": "[L-serine]", "values": [{"measurement": "pyruvate formation at A230, Michaelis-Menten fit", "setting": "[1]", "result": "In vitro, Ilv1p dehydrated serine and released 2AA"}]}, {"compound": "CC[C@H](C)[C@H](N)C(=O)O", "note": "[isoleucine]", "values": [{"measurement": "inhibition at 3.3 mM", "setting": "[2]", "result": "insensitive to isoleucine concentrations that completely inhibited the wild-type enzyme"}]}, {"compound": "C=C(N)C(=O)O", "note": "[2-aminoacrylate]", "values": [{"measurement": "coupled: 2AA generated by Ilv1p(46-576) from L-serine, pyruvate at A230", "setting": "[3]", "result": "released 2AA, which Mmf1p used as a substrate"}, {"measurement": "coupled: 2AA generated by Ilv1p(46-576) from L-serine, pyruvate at A230", "setting": "[4]", "result": "2AA-hydrolyzing activity of Mmf1p was indistinguishable from that of the well-characterized RidA enzyme"}]}]}
